From patent US12061143B2, “Methods for rapid determinations of antibiotic susceptibility phenotypes” (priority 2018, dated 2024)

Columns and labels:
[1] = system: Lab-strain E. coli (ATCC); experiment: FAST with low bacterial counts (500 counts by flow cytometry); format: cell-based; conditions: each antibiotic at MIC, ¼ MIC and 1/16 MIC, bars beyond the 99% confidence line
Description: FIG. 14. Bactericidal Antibiotic-induced changes for low counts of E. coli. Lab-strain E. coli (ATCC) ASTs performed with 500 counts by flow cytometry with gentamicin (Gen), penicillin G (PenG), and tetracycline (Tet) each at MIC, ¼ MIC and 1/16 MIC. This strain is seen to be sensitive to all three antibiotics, as the bars extend beyond the 99% confidence line.
While both morphology and growth inhibition occur upon exposure to antibiotics near the minimum inhibitory concentration, standard ASTs are based on growth inhibition alone. The presence of bacteria is clearly indicated by the presence of a particular scattering peak in the multidimensional histogram. This is much more sensitive and less affected by background than is shifts in a peak resulting from morphological changes upon antibiotic exposure. […] For even a few hundred counts, the presence of a bacterial population can be readily assessed with flow cytometry, but error bars and statistical distances must be properly determined relative to no-antibiotic controls. When too few counts for triplicate runs exist, control and each antibiotic exposure histograms are treated as probability distributions that are representative of the true mother distribution for each condition. Each histogram is binned (either adaptively with probability binning or using regular bins) and the distribution of data within each bin is determined. […]

[2] = system: 10% human blood samples without bacteria inoculation; experiment: Antibiotic-treated 10% human blood only control (no bacteria), flow cytometry; format: cell-based; conditions: 10% human blood without bacteria, around the resistance breakpoints of Enterobacteriaceae
Experimental: FIGS. 6A-6D. Antibiotic-treated 10% human blood only results. Cytometric data with (FIG. 6A) Ampicillin (FIG. 6B) Tetracycline (FIG. 6C) Gentamicin. The greyscale plots are the no-antibiotic controls and the black contour plots are the antibiotic-treated data with the antibiotic concentration indicated at each plot. (FIG. 6D) PB-sQF results for FIGS. 6A-6C). […] For each antibiotic, the resistant breakpoints of Enterobacteriaceae are 16 μg/mL for tetracycline and gentamicin and 32 μg/mL for ampicillin.
This confirms that the gentamicin sensitivity of Mu14S observed after blood culture^(1) can also be observed on much shorter timescales with FAST. Overnight plating confirms that initial Mu14S counts were 3, 2, 5 and CFU/mL for tetracycline, gentamicin and ampicillin data after 10-fold dilution of the blood/bacteria mixture, corresponding to FAST being performed on whole blood samples containing ˜30, ˜20 and ˜50 CFU/mL. […] Thus, diluting bacterimic blood specimens 1:9 (v:v) directly into saponin-containing growth medium provides a path to ASTs within 8 hours from initial blood draw, with excellent results matching independent (36-44 hrs) MIC determinations from pure, overnight cultures (˜10^8 CFU/mL) that could only be initiated after (˜24 hr) positive blood culture.

## Gentamicin
[1]
  PB-sQF AST susceptibility at low counts: sensitive
[2]
  scattered light histograms change: do not significantly change
